These results are taken from patent publication US20070037831A1, “Methods of using PDE 5 inhibitors for the treatment of congestive heart failure” (priority 2004, published 2007).

The target in the first assay is PDE V (Homo sapiens, UniProt O76074). In words: PDE V inhibition (PDE V IC50). In kind it is biochemical.
Settings: not given
As to `COc1ccc(Cn2c(N[C@@H]3CCc4ccccc43)nc3c2c(=O)n(C)c(=O)n3C)cc1` [Compound 85], the 50% inhibitory concentration (IC50) lay in the range of 15 to 100 nM.
The molecule `Cn1c(=O)c2c(nc(NC3CCCCC3)n2Cc2ccccc2)n(C)c1=O` [Compound 16] displayed an IC50 of 15 to 100 nM.
In turn, `COc1ccc(Cn2c(NC3CCCCC3)nc3c2c(=O)n(C)c(=O)n3C)cc1` [Compound 33] returned an IC50 of 10 to 15 nM.
The same measure, in the same setting: in the case of `CCn1c(=O)c2c(nc(NC3(CO)CCCC3)n2Cc2ccc(OC)cc2)n(CC(C)C)c1=O` [Compound 41] it was 15 to 100 nM; in that of `CCCn1c(=O)n(CC)c(=O)c2c1nc(NC1CCCCC1)n2Cc1ccc2c(c1)OCO2` [Compound 175], 5 to 10 nM.
Same read-out and setting: in the case of `COc1ccc(Cn2c(N[C@@H]3CCC[C@@H]3O)nc3c2c(=O)n(C)c(=O)n3CC(C)C)cc1` [Compound 17] it was 15 to 100 nM; in that of `CCCn1c(=O)n(CC)c(=O)c2c1nc(NC1CCCCC1)n2Cc1ccc(O)c(C)c1` [Compound 178], no more than 5 nM; in that of `CCn1c(=O)c2c(nc(NC3CCCC3)n2Cc2ccc(O)cc2)n(CC(C)C)c1=O` [Compound 59], 5 to 10 nM.
`CCn1c(=O)c2c(nc(NC3(CO)CC=CC3)n2Cc2ccc(OC)cc2)n(C)c1=O` [Compound 25] came in with an IC50 of 15 to 100 nM.
Same read-out and setting: the result for `Cn1c(=O)c2c(nc(NC3CCCCC3)n2Cc2cc3c(cc2Cl)OCO3)n(C)c1=O` [Compound 160] reads 10 to 15 nM.
`Cn1c(=O)c2c(nc(NC3CCCCC3)n2Cc2ccc(O)c(Cl)c2)n(C)c1=O` [Compound 161]: the IC50 was in the range of 10 to 15 nM.
The same measure, in the same setting: in the case of `Cn1c(=O)c2c(nc(NC3CCC3)n2Cc2ccc(O)cc2)n(C)c1=O` [Compound 66] it was 5 to 10 nM.
The same measure, in the same setting: in the case of `CCCn1c(=O)n(CC)c(=O)c2c1nc(NC1CCCCC1)n2Cc1ccc(OC)c(C)c1` [Compound 176] it was 15 to 100 nM.
The same measure, in the same setting: the result for `COc1ccc(Cn2c(NC3CCCCC3)nc3c2c(=O)n(C)c(=O)n3C)cc1Cl` [Compound 159] reads 5 to 10 nM; that for `COc1ccc(Cn2c(=O)c3c(nc(NC4(CO)CC=CC4)n3Cc3ccc(OC)cc3)n(C)c2=O)cc1` [Compound 67], no more than 5 nM; that for `CCn1c(=O)c2c(nc(NC3CCCCC3)n2Cc2ccc(C(=O)O)cc2)n(CC)c1=O` [Compound 98], 15 to 100 nM.
Regarding `CCn1c(=O)c2c(nc(NC3CCOCC3)n2Cc2ccc(S(N)(=O)=O)c(Br)c2)n(CC)c1=O` [Compound 190], the IC50 lay in the range of 5 to 10 nM.
Same read-out and setting: the result for `CCn1c(=O)c2c(nc(NC3CCCCC3)n2Cc2ccc(O)cc2)n(CC)c1=O` [Compound 64] reads no more than 5 nM; that for `CCn1c(=O)c2c(nc(N[C@@H]3CCCC[C@H]3O)n2Cc2ccc(OC)c(Br)c2)n(CCO)c1=O` [Compound 185], 15 to 100 nM; that for `CCn1c(=O)c2c(nc(NC3(CO)CC=CC3)n2Cc2ccc(OC)cc2)n(CC)c1=O` [Compound 62], no more than 5 nM.
On the same count and under the same terms, in the case of `CCn1c(=O)c2c(nc(NC3CCCCC3)n2Cc2ccc(O)cc2)n(CC(C)C)c1=O` [Compound 65] it was no more than 5 nM; in that of `CCn1c(=O)c2c(nc(NC3CCCCC3)n2Cc2ccc(C(=O)OC)cc2)n(CC)c1=O` [Compound 99], 5 to 10 nM; in that of `CCCn1c(=O)n(CC)c(=O)c2c1nc(NC1CCCCC1)n2Cc1ccccc1F` [Compound 173], 15 to 100 nM.
The same measure, in the same setting: in the case of `CCn1c(=O)c2c(nc(NC3CCCC3)n2Cc2ccc(OC)cc2)n(CC(C)C)c1=O` [Compound 38] it was 15 to 100 nM; in that of `CCn1c(=O)c2c(nc(NC3CCCCC3)n2Cc2ccc(OC)cc2)n(CC)c1=O` [Compound 61], no more than 5 nM; in that of `COc1ccc(Cn2c(NC3(CO)CCCC3)nc3c2c(=O)n(C)c(=O)n3C)cc1` [Compound 13], 15 to 100 nM.
The molecule `CCCn1c(=O)n(CC)c(=O)c2c1nc(NC1CCCCC1)n2Cc1ccc(O)c(Cl)c1` [Compound 172] came in with an IC50 of 5 to 10 nM.

For another assay, the target named is T1, type V phosphodiesterase (Homo sapiens, UniProt O76074).
T1 construct: endogenous in cells; host or cells: vasculature of patients with heart failure (in vivo)
Assay: not given
The settings on record: patients with heart failure, acute; cited from earlier work.
Take `CCCc1nn(C)c2c(=O)[nH]c(-c3cc(S(=O)(=O)N4CCN(C)CC4)ccc3OCC)nc12` [Sildenafil]: the endothelium dependent vasodilation result is recorded as “acutely enhance endothelium dependent vasodilation”.

The next assay deals with T2, ETA receptor (Homo sapiens, UniProt P25101).
T2 sequence (P25101 21-427): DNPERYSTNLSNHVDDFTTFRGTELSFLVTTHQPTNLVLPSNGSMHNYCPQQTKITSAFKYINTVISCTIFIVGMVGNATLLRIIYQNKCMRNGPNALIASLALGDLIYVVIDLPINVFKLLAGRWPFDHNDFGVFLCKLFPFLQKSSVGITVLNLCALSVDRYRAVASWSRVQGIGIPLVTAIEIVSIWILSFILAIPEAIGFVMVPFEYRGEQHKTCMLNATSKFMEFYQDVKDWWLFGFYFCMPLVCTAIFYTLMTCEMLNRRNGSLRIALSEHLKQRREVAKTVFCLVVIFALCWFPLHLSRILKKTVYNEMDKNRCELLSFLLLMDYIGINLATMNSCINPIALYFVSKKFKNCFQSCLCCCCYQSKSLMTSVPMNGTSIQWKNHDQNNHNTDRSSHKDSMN
Assay: not given
The settings on record: among the ETA receptor antagonists; cited from earlier work.
Take `Cc1cc2c(cc1CC(=O)c1sccc1S(=O)(=O)Nc1onc(C)c1Cl)OCO2` [sitaxsentan]: the “selectivity over ETB” value is recorded as “particularly selective over ETB”.
